According to patent publication US20180064808A1, “COMBINATION THERAPY OF BISPECIFIC ANTIBODIES SPECIFIC FOR FAP AND DR5 AND CHEMOTHERAPEUTIC AGENTS” (Hoffmann-La Roche Inc., priority 2014, published 2018):
Read-outs that look alike come from different tables or passages of the source.

How the values were obtained:
[1] = test system: Sarc4605 sarcoma xenograft; assay: Sarc4605 sarcoma fragment based patient derived xenograft model (PDX); format: in vivo, nude mice; details: doxorubicin alone 5 mg/kg q7d
Bxpc3 = assay: Combination screen PDAC cell lines (CellTiter-Glo); format: cell-based; details: Bxpc3; for % max. inhibition (mono): first figure of mono/combo; for Fold change IC50 (DR5 ab mono vs combo) / % max. inhibition (combo): n.s. = not significant; for % max. inhibition (combo): second figure of mono/combo; for IC50: Homo sapiens, BXPC-3, 72 h, agent alone, 3 days, read-out: IC50 monotherapy
Method: (§1) A panel of CRC and PDAC cell lines was assessed and combination partners of potential clinical relevance for the respective tumor indications were used for evaluation of combination effects (CRC: irinotecan, oxaliplatin, 5-FU, MDM2 inhibitor (RG7388), Bcl-2 inhibitor (ABT199); PDAC: Abraxane, Paclitaxel, Gemcitabine, Doxorubicin, MDM2i (RG7388), Bc12i (ABT199), Bortezomib, Cyclopamine, PARP inhibitor (PJ34)).
(§2) Cells were seeded (numbers vary depending on the cell line) in black 96-well microplate with clear, flat bottom and incubated overnight at 37° C. and 5% CO2. After checking the adherence/confluence of cells, the medium was removed and 100 μl of fresh medium containing the corresponding compound was added to each well. A sequential dilution series (1:4) of 8 concentrations per compound (n=3) were used. Corresponding DMSO concentration and media alone were used as controls.
(§3) After incubation for 3 days at 37° C. and 5% CO2, 100 μl per well CellTiter-Glo reagent (Promega) was added to the plate. Luminescence was measured after 30 minutes agitation at room temperature. IC50-values were calculated with XL-Fit software. Each experiment with one compound was repeated at least twice.
(§4) Cells were seeded (numbers vary depending on the cell line) in black 96-well microplate with clear, flat bottom and incubated overnight at 37° C. and 5% CO2. After checking the adherence/confluence of cells, the medium was removed and 100 μl of fresh medium containing the corresponding compound or combination was added to each well.
(§5) A sequential 1:3 dilution series of 9 concentrations of Drozitumab/anti-human-Fc was done on a 96-well PP-V-bottom microplate (n=6). […] 25 μl/well of the Drozitumab/anti-human-Fc series were then transferred to the cells.
(§6) After incubation for 3 days at 37° C. and 5% CO2 100 μl per well CellTiter-Glo reagent (Promega) were given to the plates. Luminescence was measured after 30 minutes agitation at room temperature.
(§7) For each concentration of Drozitumab/anti-human-Fc and Drozitumab/anti-human-Fc+compound triplicates were done on the same plate and each experiment was repeated at least twice.

Capan2 = assay: Combination screen PDAC cell lines (CellTiter-Glo); format: cell-based; details: Capan2; for % max. inhibition (combo): second figure of mono/combo, n.s. = not significant; for IC50: Homo sapiens, Capan-2, 72 h, agent alone, 3 days, read-out: IC50 monotherapy; for % max. inhibition (mono): first figure of mono/combo
Method: as §1, §2, §3, §4, §5, §6, §7

Panc1 = assay: Combination screen PDAC cell lines (CellTiter-Glo); format: cell-based; details: Panc1; for IC50: Homo sapiens, PANC-1, 72 h, 3 days; for Fold change IC50 (DR5 ab mono vs combo) / % max. inhibition (combo): n.s. = not significant; for % max. inhibition (combo): second figure of mono/combo
Method: as §1, §2, §3, §4, §5, §6, §7

Aspc1 = assay: Combination screen PDAC cell lines (CellTiter-Glo); format: cell-based; details: Aspc1; for Fold change IC50 (DR5 ab mono vs combo) / % max. inhibition (combo): n.s. = not significant; for % max. inhibition (combo): second figure of mono/combo; for IC50: Homo sapiens, 72 h, agent alone, 3 days, read-out: IC50 monotherapy
Method: as §1, §2, §3, §4, §5, §6, §7

[2] = test system: LOX-IMVI desmoplastic melanoma xenograft; assay: LOX-IMVI desmoplastic melanoma cell line based xenograft model; format: in vivo, nude mice; details: doxorubicin alone 5 mg/kg q7d
Excerpt: The in vivo antitumor efficacy of the bispecific antibody DR5-FAP (DR5 binder: VH SEQ ID NO.:7, VL SEQ ID NO.: 8, FAP binder: VH SEQ ID NO.:15, VL SEQ ID NO.: 16) could be detected in cell and fragment based patient derived (PDX) models of various tumor origin (e.g. CRC, pancreatic cancer, desmoplastic melanoma and sarcoma) transplanted on nude mice. As example data for combination efficacy of bispecific antibody DR5-FAP (DR5 binder: VH SEQ ID NO.:7, VL SEQ ID NO.: 8, FAP binder: VH SEQ ID NO.:15, VL SEQ ID NO.: 16) and chemotherapeutics that activate the intrinsic apoptosis pathway are shown for the CRC xenograft model DLD-1 and HCT116 (cell line based, co-injection model) and Co5896 (fragment based).
The bispecific antibody DR5-FAP (DR5 binder: VH SEQ ID NO.:7, VL SEQ ID NO.: 8, FAP binder: VH SEQ ID NO.:15, VL SEQ ID NO.: 16) was provided as stock solution from Roche, Penzberg, Germany. Antibody buffer included histidine. Antibody solution was diluted appropriately in buffer from stock prior injections. An Fc mutant of the prior art DR5 specific antibody Drozitumab was provided as stock solution from Roche, Penzberg, Germany. This antibody comprises three amino acid substitutions in the Fc domain that abolish binding to an activating or inhibitory Fc receptor and/or effector function wherein said amino acid substitutions are L234A, L235A and P329G. […]

[3] = clinical studies; cited from earlier work
HT29 = assay: Combination screen CRC cell lines (CellTiter-Glo); format: cell-based; details: n.s. = not significant
Method: as §1, §2, §3, §4, §5, §6, §7

SW480 = assay: Combination screen CRC cell lines (CellTiter-Glo); format: cell-based
Method: as §1, §2, §3, §4, §5, §6, §7

HCT116 = assay: Combination screen CRC cell lines (CellTiter-Glo); format: cell-based, human
Method: as §1, §2, §3, §4, §5, §6, §7

FcγR mutant mice = details: cited from earlier work
FAP = assay: Binding mode, specificity and species cross-reactivity of FAP binder 28H1
[4] = agent alone, read-out: IC50 monotherapy

Compound	Fold change IC50 (DR5 ab mono vs combo) (Bxpc3)	IC50 (Bxpc3)	IC50 (Panc1; [4])	Fold change IC50 (DR5 ab mono vs combo) (Panc1)	Fold change IC50 (DR5 ab mono vs combo) (Aspc1)	% max. inhibition (mono) (Bxpc3)	% max. inhibition (combo) (Bxpc3)	% max. inhibition (combo) (Capan2)	% max. inhibition (combo) (Panc1)	% max. inhibition (combo) (Aspc1)	% max. inhibition (mono) (Capan2)	other results
Tigatuzumab: humanized DR5 agonistic antibody												maximally tolerated dose (MTD) [3]: up to 8 mg/kg
Drozitumab: fully human DR5 agonistic antibody described in US2007/0031414 and WO 2006/083971												maximally tolerated dose (MTD) [3]: > 20 mg/kg; in vivo activity (FcγR mutant mice): inactive
CC(=O)O[C@H]1C(=O)[C@@]2(C)[C@H]([C@H](OC(=O)c3ccccc3)[C@]3(O)C[C@H](OC(=O)[C@H](O)[C@@H](NC(=O)c4ccccc4)c4ccccc4)C(C)=C1C3(C)C)[C@]1(OC(C)=O)CO[C@@H]1C[C@@H]2O [Paclitaxel, 5β,20-Epoxy-1,2α,4,7β,10β,13α-hexahydroxytax-11-en-9-one 4,10-diacetate 2-benzoate 13-ester with (2R,3S)-N-benzoyl-3-phenylisoserine]	1	250 nM	15 nM	8733	31	80%	100%	80%	70%	75%	50%	IC50 (Panc1; DR5 ab + Fc titrated in combination with 1x IC50 of the named compound, read-out: IC50 Combo): 0.03 nM; % max. inhibition (mono) (Panc1; first figure of mono/combo): 50%; % max. inhibition (mono) (Aspc1; first figure of mono/combo): 30%
28H1: FAP binder, VH SEQ ID NO. 15 / VL SEQ ID NO. 16, described in WO 2012/020006												Species Cross-Reactivity (FAP): Human, cyno, murine; Binding Mode (FAP; cell wraps r13-r15: No interference with signaling/protease function, conformational epitope): conformational epitope; Specificity (FAP; cell wraps r17-r18: No binding to hu DPP-IV (CD26, closest FAP homologue)): No binding to hu DPP-IV

Continued, in another order:

Fold change IC50 (DR5 ab mono vs combo) (Bxpc3)	IC50 (Bxpc3)	IC50 (Panc1; [4])	Fold change IC50 (DR5 ab mono vs combo) (Panc1)	Fold change IC50 (DR5 ab mono vs combo) (Aspc1)	Compound	% max. inhibition (mono) (Bxpc3)	% max. inhibition (combo) (Bxpc3)	% max. inhibition (combo) (Capan2)	% max. inhibition (combo) (Panc1)	% max. inhibition (combo) (Aspc1)	% max. inhibition (mono) (Capan2)	other results
2	4000 nM	620 nM	n.s.	5	COc1cccc2c1C(=O)c1c(O)c3c(c(O)c1C2=O)C[C@@](O)(C(=O)CO)C[C@@H]3O[C@H]1C[C@H](N)[C@H](O)[C@H](C)O1 [Doxorubicin, (7S,9S)-7-[(2R,4S,5S,6S)-4-amino-5-hydroxy-6-methyloxan-2-yl]oxy-6,9,11-trihydroxy-9-(2-hydroxyacetyl)-4-methoxy-8,10-dihydro-7H-tetracene-5,12-dione]	25%	70%	n.s.	n.s.	n.s.		tumor growth inhibition [1]: 77%; IC50 (Capan2): 1500 nM; IC50 (Aspc1): 300 nM; tumor growth inhibition [2]: 77%
n.s.			n.s.	n.s.	CC1(C)CCC(CN2CCN(c3ccc(C(=O)NS(=O)(=O)c4ccc(NCC5CCOCC5)c([N+](=O)[O-])c4)c(Oc4cnc5[nH]ccc5c4)c3)CC2)=C(c2ccc(Cl)cc2)C1 [Bcl2i (ABT199), (4-(4-{[2-(4-chlorophenyl)-4,4-dimethylcyclohex-1-en-1-yl]methyl}piperazin-1-yl)-N-({3-nitro-4-[(tetrahydro-2H-pyran-4-ylmethyl)amino]phenyl}sulfonyl)-2-(1H-pyrrolo[2,3-b]pyridin-5-yloxy)benzamide)]		n.s.	60%	n.s.	n.s.	20%	Fold change IC50 (DR5 ab mono vs combo) (HT29): 3; % max. inhibition (combo) (HT29; second figure of mono/combo): n.s.; IC50 combo (SW480; DR5 ab + Fc titrated in combination with 1x IC50 of the named compound, 3 days, n.s. = not significant): n.s.; % max. inhibition (mono) (SW480; first figure of mono/combo): 5%; Fold change IC50 (DR5 ab mono vs combo) (SW480; n.s. = not significant): n.s.; % max. inhibition (combo) (SW480; second figure of mono/combo): 30%; Fold change IC50 (DR5 ab mono vs combo) (HCT116): 500; % max. inhibition (mono) (HCT116; first figure of mono/combo): 50%; % max. inhibition (combo) (HCT116; second figure of mono/combo): 80%
8	10 nM	8.5 nM	n.s.	n.s.	CC(C)C[C@H](NC(=O)[C@H](Cc1ccccc1)NC(=O)c1cnccn1)B(O)O [Bortezomib, [(1R)-3-methyl-1-[(2S)-3-phenyl-2-(pyrazin-2-ylformamido)propanamido]butyl]boronic acid]	60%	100%	95%	n.s.	n.s.	40%	IC50 (Capan2): 20 nM; IC50 (Aspc1): 30 nM
